Laboratory results: patent publication EP1543832A2, “Use of trans-4[4-(3-chloro-4-methoxy-benzylamino) benzothieno[2,3-d]pyrimidin-2-yl]-cyclohexanecarboxylic acid in the treatment of extrapyramidal movement disorders” (MERCK PATENT GmbH, priority 2003, dated 2005)

Columns and labels:
[1] = test system: Parkinsonian cynomolgus monkey; experiment: MPTP Parkinsonian cynomolgus monkey, Laval University Disability Scale; assay type: in vivo
Text: A typical animal model for idiopathic Parkinson's disease is the Parkinsonian cynomolgus monkey according to P.J. Blanchet et al., Exp. Neurology 1998; 153: 214-222. Monkeys render parkinsonian by repeated injections of 1-methyl-4-phenyl-1,2,3,6-tetrahydropyridine (MPTP).
Parkinsonian symptoms are qualitatively assessed by the use of the Laval University Disability Scale (B. Gomez-Mancilla et al., 1993; Mov. Disord. 8: 144-150) measuring the following symptoms: posture, mobility, climbing, gait, holding food, vocalizing, grooming, social interaction.

[2] = test system: cervical dystonia (spasmodic torticollis); experiment: Double-blind placebo-controlled study in cervical dystonia (TWSTRS); assay type: in vivo, patients; details: 2.5 mg to 20 mg b.i.d. versus placebo
[3] = test system: neuroleptics sensitized monkey; experiment: Neuroleptics sensitized monkey, haloperidol challenge; assay type: in vivo; details: given after haloperidol challenge; scoring system
Text: Another typical animal model is the neuroleptics sensitized monkey according to D.E. Casey, Psychopharmacology, 1996; 124: 134-140. Monkeys treated repeatedly with conventional neuroleptics are highly sensitive to a subsequent challenge dose of neuroleptic drugs. When challenged, the monkeys immediately show extrapyramidal motor side effects such as dystonia, dyskinesias, akathisia, and bradykinesia which are rated by a scoring system. The conventional neuroleptic drug haloperidol is given as a challenge.

mutant dystonic hamster = experiment: Mutant dystonic hamster, scored dystonic attacks; assay type: in vivo; details: scoring system
Text: A typical animal model is the mutant dystonic hamster according to A. Richter and W. Löscher, Prog. Neurobiol. 1998; 54: 633-677. In this genetically dystonic hamsters, dystonic attacks are provoked by taking the animal from the home cage and placing it on a balance. The dystonic syndrome consists of a sequence of abnormal movements, and the severity of the single symptoms is rated by a scoring system.

[4] = test system: oxotremorine-induced tremor; experiment: Oxotremorine-induced tremor, rating scale; assay type: in vivo
Method: A typical animal model for drug-induced tremors is the oxotremorine-induced tremor (e.g. H. Hallberg and O. Almgren, Acta Physiol. Scand., 1987; 129: 407-13; J.G. Clement and W.R. Dyck, J. Pharmacol. Meth., 1989; 22: 25-36). Oxotremorine induces tremor which is measured by a rating scale. Trans-4-[4-(3-chloro-4-methoxybenzylamino)-benzothieno-[2,3-d]pyrimidin-2-yl]cyclohexanecarboxylic acid or a physiologically acceptable salt thereof inhibit oxotremorine-induced tremors.

[5] = test system: Parkinsonian cynomolgus monkey; experiment: Adverse effects of long-term l-dopa treatment in the MPTP Parkinsonian cynomolgus monkey; assay type: in vivo; details: MPTP monkeys chronically treated with l-dopa
Method: Treatment of adverse effects of conventional anti-Parkinsonian drugs as defined above are determined in a modification of the animal model of the Parkinsonian cynomolgus monkey according to P.J. Blanchet et al., Exp. Neurology 1998; 153: 214-222. Monkeys render parkinsonian by repeated injections of 1-methyl-4-phenyl-1,2,3,6-tetrahydropyridine (MPTP). The Parkinsonian monkeys are chronically treated with the standard I-dopa therapy according to P.J. Blanchet et al., Mov. Disord., 1998; 13: 798-802. Longterm treatment with I-dopa induces extrapyramidal motor side effects and psychotic states which are both qualitatively and quantitatively, assessed by the Abnormal Involuntary Movement Scale (P.J. Blanchet et al., Mov. Disord. 1998; 13: 798-802) for different body parts (face, neck, trunk, each limb) and by rating for psychotic states by observing the monkey's attention, reactivity and mobility. Trans-4-[4-(3-chloro-4-methoxybenzylamino)-benzothieno-[2,3-d]pyrimidin-2-yl]cyclohexane-carboxylic acid reduced overall choreiform dyskinesias and dystonic dyskinesias as well as psychotic states.

[6] = test system: Campus Syndrome in the Pietrain pig; experiment: Campus Syndrome tremor model, accelerometric recording; assay type: in vivo
Text: Typical genetic models in mutant animals are the Campus Syndrome in the Pietrain pig according to A. Richter et al. (Exp. Neurology, 1995; 134: 205-213) or the Weaver mutant mouse according to J.R. Simon and B. Ghetti (Mol. Neurobiol., 1994; 9: 183-189). In the Campus Syndrome model, these mutant pigs show a high-frequency tremor when standing and during locomotion, but not while lying at rest. Assessment of tremor is made by accelerometric recording. In the Weaver mutant mouse, degenerative cerebellar atrophy is fould in association with tremor, gait instability, and toppling over the sides after a few steps.
Trans-4-[4-(3-chloro-4-methoxybenzylamino)-benzothieno-[2,3-d]pyrimidin-2-yl]cyclohexanecarboxylic acid or a physiologically acceptable salt thereof improve the Campus Syndrome in the Pietrain pig, i.e. reduce disabling tremor when standing and during locomotion, and enhance locomotor activity in the Weaver mutant mouse.

[7] = test system: systemic 3-nitropropionic acid (3-NP) model in rats; experiment: Systemic 3-nitropropionic acid (3-NP) model, nocturnal activity; assay type: in vivo
Method: A typical animal model is the systemic 3-nitropropionic acid (3-NP) model in rats according to C.V. Borlongan et al., Brain Res., 1995; 697: 254-257. Rats are treated with injections of the selective striatal neurotoxin 3-NP i.p. every fourth day (C.V. Borlongan et al., Brain Res. Protocols, 1997; 1: 253-257). After two injections of 3-NP, rats display nocturnal hyperactivity reflecting symptoms of early Huntington's disease, whereas rats treated with four injections of 3-NP display nocturnal akinesia (hypoactivity) reflecting symptoms of late Huntington's disease. Nocturnal activity is automatically measured in conventional acitivity cages by infrared beams. Trans-4-[4-(3-chloro-4-methoxybenzylamino)-benzothieno-[2,3-d]pyrimidin-2-yl]cyclohexanecarboxylic acid or a physiologically acceptable salt thereof reduce both the nocturnal hyperactivity and akinesia.

[8] = test system: patients with Huntington's disease; experiment: Placebo-controlled add-on trial in Huntington's disease; assay type: in vivo; details: AIMS, UHDRS, video recordings; add-on 2.5 to 20 mg b.i.d. versus placebo
Method: A typical trial to establish the effect of the compounds according to the invention on chorea, voluntary motor performance, and functional disability in patients with Huntington's disease encompasses 32 genetically diagnosed patients. Trans-4-[4-(3-chloro-4-methoxybenzylamino)-benzothieno-[2,3-d]pyrimidin-2-yl]cyclohexanecarboxylic acid sodium or ethanolamine salt or placebo is administered as "add on" to the conventional treatment, which is maintained unchanged during the whole study. The dose of blinded medication is titrated over a period of 3 weeks in a range from 2.5 to 20 mg b.i.d. Then the medication is held constant for 1 week. Assessments are performed in the week before and at the last day of the trial. Chorea is scored using the abnormal involuntary movement scale (AIMS, W. Guy, in: ECDEU assessment manual. Rockville MD: US dept. of health, education and welfare, 1976: 534-537), the unified Huntington's disease rating scale (UHDRS, Huntington study group, 1996, Movement Disord, 11: 136-42), and judgement of video recordings. Voluntary motor performance is assessed using the UHDRS motor scale. Patients and their partners complete a questionnaire regarding functional disability.

[9] = Abnormal Involuntary Movement Scale

In the case of `COc1ccc(CNc2nc([C@H]3CC[C@H](C(=O)O)CC3)nc3sc4ccccc4c23)cc1Cl` [trans-4-[4-(3-chloro-4-methoxybenzylamino)-benzothieno-[2,3-d]pyrimidin-2-yl]cyclohexanecarboxylic acid], the parkinsonian symptoms ([1]; Laval University Disability Scale) is reported as “reduced all the parkinsonian symptoms”, the total activity ([1]; MPTP monkeys) is reported as “increased” and the TWSTRS scores [2] is reported as “significant improvement”. The “extrapyramidal motor side effects” value [3] was “dose-dependently reduce”, the “severity of dystonic symptoms” value (mutant dystonic hamster) was “dose-dependently reduce” and the oxotremorine-induced tremors [4] was “inhibit”. For the same compound, the dystonic dyskinesias [5, 9] was “reduced”, the overall choreiform dyskinesias [5, 9] was “reduced” and the psychotic states ([5]; rating of attention, reactivity and mobility) was “reduced”. The “disabling tremor when standing and during locomotion” value [6] was “reduce”, the nocturnal akinesia ([7]; after four injections of 3-NP (late Huntington's disease)) was “reduce” and the nocturnal hyperactivity ([7]; after two injections of 3-NP (early Huntington's disease)) was “reduce”. The “voluntary and involuntary motor performance” value [8] was “significant improvement”.
